Laboratory results: patent publication US20130131161A1, “METHODS AND COMPOSITIONS FOR CARDIOVASCULAR DISEASES AND CONDITIONS” (priority 2009, published 2013)

System: Human umbilical vein endothelial cells (HUVECs)
Assay: eNOS activity analysis: NO, ONOO− and NO/ONOO− release from HUVECs of 50 genotyped donors in response to LA-419 (Example 2)
Assay type: cell-based
Details: for % Change ONOO− (mean ± sd) / % Change NO (mean ± sd) / % Change NO/ONOO− (mean ± sd): LA-419 5 μM vs control; for Fold difference NO production / Fold difference NO/ONOO− ratio: LA-419 5 μM/control; for % Change Ratio, % Change NO/% Change ONOO− (mean ± sd) / Net increase over control NO (mean ± sd) / Net increase over control NO/ONOO− (mean ± sd) / Net increase over control ONOO− (mean ± sd) / Peak release NO (mean ± sd) / Peak release NO/ONOO− (mean ± sd) / Peak release ONOO− (mean ± sd): LA-419 5 μM
Experimental: Concurrent measurements of NO and ONOO^− were carried out with tandem electrochemical nanosensors combined into one working unit with a total diameter of 200-500 nm (FIG. 1). Their design was based on previously developed and well-characterized chemically modified carbon-fiber technology (Malinski and Taha, 1992; Lvovich and Scheeline, 1997). Each of the nanosensors was made by depositing a sensing material on the tip of a carbon fiber (length 4-5 μm, diameter 0.2-0.5 μm). The fibers were sealed with nonconductive epoxy and electrically connected to copper wires with conductive silver epoxy. A conductive film of polymeric nickel (II) tetrakis(3-methoxy-4-hydroxyphenyl)porphyrin for the NO-sensor and polymeric film of Mn (III) [2.2]paracyclophanylporphyrin was used for the ONOO^−-sensor.
A module of NO/ONOO^− nanosensors (diameter 1-2 μm) with a platinum wire (0.1 mm) counter electrode and saturated calomel reference electrode (SCE) were applied. Differential pulse voltammetry (DPV) and amperometry were performed with a computer-based Gamry VFP600 multichannel potentiostat. DPV was used to measure the basal NO and ONOO^− concentrations, and amperometry was used to measure changes in NO and ONOO^− concentrations from its basal level with time. The DPV current at the peak potential characteristic for NO oxidation (0.65 V) and ONOO^− reduction (−0.45 V) was directly proportional to the local concentrations of these compounds in the immediate vicinity of the sensor. Linear calibration curves (current vs. concentration) were constructed for each sensor from 10 nM to 3 μM before and after measurements with aliquots of NO and ONOO^− standard solutions, respectively. The detection limit of the sensors was 1.0 nM.
The quantification of each analyte (concentration in nM) was performed using a maximum current from amperograms and standard calibration curves. A reproducibility of measurements with nanosensors is relatively high (between 5-12%). […] The sensors were slowly raised 5±2 μm from the surface of a single endothelial cell. The eNOS agonist, calcium ionophore A23187 (CaI) as well as the different drugs were then added to the surrounding media at the cell surface with a nanoinjector that was also positioned by a computer controlled-micromanipulator.
This example describes the genotype-specific response of the three major eNOS variants to 1 μM and 5 μM concentrations of LA-419. The three major genetic polymorphisms studied were the Glu298Asp variant (E298D or 894G→T) in exon 7 of […], the −786T→C variant in the promoter region, and the intron 4 polymorphism (VNTR). All of these variants have possible effects on the cardiovascular system and endothelial dysfunction. For this study, human umbilical vein endothelial cells (HUVECs) from 50 donors between 18 and 32 years of age were used.
For the analysis several analysis techniques were employed. First, the effect of genotype on NO and ONOO^− release was explored within the different concentrations of LA-419 (control, 1 μM, 5 μM), calculated as the average peak release (nmols/L) of NO, ONOO^−, and NO/ONOO^−. The effect of genotype on the net increase in NO, ONOO^−, and NO/ONOO^− for LA-419 (1 μM and 5 μM) as compared to control was also measured. In addition, an analysis was done on the effect of genotype on the % change in NO, ONOO^−, and NO/ONOO^− production for LA-419 (1 μM and 5 μM), calculated as:
% Change=[(avg. LA-419−avg. control)/(avg. control)]*100
Finally, an evaluation was undertaken concerning the effect of genotype on the production of NO, ONOO^−, and NO/ONOO^− as the fold difference of control for LA-419 (1 μM and 5 μM), calculated as:
Fold Difference=(avg. LA-419)/(avg. control)
Within each calculation technique the results were compared for statistical significance using a non-parametric ANOVA Kruskal-Wallace test or a non-parametric Mann-Whitney U test. Statistical significance was set at a p-value <0.05 in a two-tailed distribution. […]

[1] = Caucasians, exon 7 major allele homozygote
[2] = Caucasians, exon 7 minor allele carriers
[3] = exon 7 major allele homozygote, all races
[4] = exon 7 minor allele carriers, all races
[5] = HUVECs G894T + T-786C Combination of all genotypes other than G/G + T/T
[6] = HUVECs G894T + T-786C variant G/G + T/C
[7] = HUVECs G894T + T-786C variant G/G + T/T (Reference)
[8] = HUVECs G894T + T-786C variant G/T + C/C
[9] = HUVECs G894T + T-786C variant G/T + T/C
[10] = HUVECs G894T + T-786C variant G/T + T/T
[11] = HUVECs G894T + T-786C variant T/T + C/C
[12] = HUVECs G894T + T-786C variant T/T + T/C

Compound: CC(=O)SC1COC2C(O[N+](=O)[O-])COC12 (stereo not drawn) [LA-419, S-(6-Nitro-oxi-hexahydro-furo[3,2-b]furan-3-1-il)thioacetate]
- % Change ONOO− (mean ± sd) (HUVECs Intron 4 variant b/a): −19.70 (5.79) %
- % Change NO (mean ± sd) (HUVECs Intron 4 variant b/b): 13.52 (6.80) %
- % Change NO/ONOO− (mean ± sd) (HUVECs Intron 4 variant b/b): 42.24 (17.73) %
- % Change ONOO− (mean ± sd) (HUVECs Intron 4 variant b/b): −19.19 (7.76) %
- % Change NO (mean ± sd) (HUVECs Intron 4 variant c/c): 17.36 (0) %
- % Change NO/ONOO− (mean ± sd) (HUVECs Intron 4 variant c/c): 52.87 (0) %
- % Change ONOO− (mean ± sd) (HUVECs Intron 4 variant c/c): −22.99 (0) %
- % Change NO (mean ± sd) (HUVECs T-786C variant C/C): 11.63 (5.99) %
- % Change NO/ONOO− (mean ± sd) (HUVECs T-786C variant C/C): 42.33 (13.21) %
- % Change ONOO− (mean ± sd) (HUVECs T-786C variant C/C): −21.03 (7.77) %
- % Change NO (mean ± sd) (HUVECs T-786C variant T/C): 13.58 (6.82) %
- % Change NO/ONOO− (mean ± sd) (HUVECs T-786C variant T/C): 38.74 (13.67) %
- % Change ONOO− (mean ± sd) (HUVECs T-786C variant T/C): −17.73 (5.53) %
- % Change NO (mean ± sd) (HUVECs T-786C variant T/T): 16.16 (5.97) %
- % Change NO/ONOO− (mean ± sd) (HUVECs T-786C variant T/T): 49.09 (17.76) %
- % Change ONOO− (mean ± sd) (HUVECs T-786C variant T/T): −20.98 (8.19) %
- Fold difference NO production [1]: 1.19±0.07
- Fold difference NO/ONOO− ratio [1]: 1.47±0.12
- Fold difference NO production [2]: 1.11±0.05
- Fold difference NO/ONOO− ratio [2]: 1.35±0.10
- Fold difference NO production (Caucasians, promoter major allele variant): 1.17±0.08
- Fold difference NO production [3]: 1.16±0.06
- Fold difference NO/ONOO− ratio [3]: 1.48±0.18
- Fold difference NO production [4]: 1.13±0.06
- Fold difference NO/ONOO− ratio [4]: 1.39±0.13
- % Change Ratio, % Change NO/% Change ONOO− (mean ± sd) (HUVEC donor Race Asian): −0.50 (0)
- % Change Ratio, % Change NO/% Change ONOO− (mean ± sd) (HUVEC donor Race Black): −0.79 (0.44)
- % Change Ratio, % Change NO/% Change ONOO− (mean ± sd) (HUVEC donor Race Not Reported): −0.59 (0.08)
- Net increase over control NO (mean ± sd) [5]: 46.78 (22.38) nmols/L
- Net increase over control NO/ONOO− (mean ± sd) [5]: −0.87 (0.81)
- Net increase over control ONOO− (mean ± sd) [5]: −68.74 (26.87) nmols/L
- Peak release NO (mean ± sd) [5]: 398.12 (90.43) nmols/L
- Peak release NO/ONOO− (mean ± sd) [5]: 1.43 (0.54)
- Peak release ONOO− (mean ± sd) [5]: 304.95 (81.70) nmols/L
- Net increase over control NO (mean ± sd) [6]: 51.58 (25.77) nmols/L
- Net increase over control NO/ONOO− (mean ± sd) [6]: −0.78 (0.51)
- Net increase over control ONOO− (mean ± sd) [6]: −66.54 (26.77) nmols/L
- Peak release NO (mean ± sd) [6]: 397.25 (102.46) nmols/L
- Peak release NO/ONOO− (mean ± sd) [6]: 1.56 (0.60)
- Peak release ONOO− (mean ± sd) [6]: 277.33 (69.85) nmols/L
- Net increase over control NO (mean ± sd) [7]: 56.59 (19.21) nmols/L
- Net increase over control NO/ONOO− (mean ± sd) [7]: −0.88 (0.54)
- Net increase over control ONOO− (mean ± sd) [7]: −77.59 (31.16) nmols/L
- Peak release NO (mean ± sd) [7]: 399.67 (56.96) nmols/L
- Peak release NO/ONOO− (mean ± sd) [7]: 1.48 (0.48)
- Peak release ONOO− (mean ± sd) [7]: 293.93 (83.07) nmols/L
- Net increase over control NO (mean ± sd) [8]: 46.00 (0) nmols/L
- Net increase over control NO/ONOO− (mean ± sd) [8]: −1.01 (0)
- Net increase over control ONOO− (mean ± sd) [8]: −45.67 (0) nmols/L
- Peak release NO (mean ± sd) [8]: 434.33 (0) nmols/L
- Peak release NO/ONOO− (mean ± sd) [8]: 1.72 (0)
- Peak release ONOO− (mean ± sd) [8]: 252.67 (0) nmols/L
- Net increase over control NO (mean ± sd) [9]: 43.72 (19.86) nmols/L
- Net increase over control NO/ONOO− (mean ± sd) [9]: −0.83 (0.84)
- Net increase over control ONOO− (mean ± sd) [9]: −65.59 (20.60) nmols/L
- Peak release NO (mean ± sd) [9]: 387.90 (86.10) nmols/L
- Peak release NO/ONOO− (mean ± sd) [9]: 1.34 (0.54)
- Peak release ONOO− (mean ± sd) [9]: 318.33 (82.55) nmols/L
- Net increase over control NO (mean ± sd) [10]: 52.83 (20.89) nmols/L
- Net increase over control NO/ONOO− (mean ± sd) [10]: −1.29 (1.15)
- Net increase over control ONOO− (mean ± sd) [10]: −71.50 (46.74) nmols/L
- Peak release NO (mean ± sd) [10]: 433.58 (65.75) nmols/L
- Peak release NO/ONOO− (mean ± sd) [10]: 1.71 (0.21)
- Peak release ONOO− (mean ± sd) [10]: 252.92 (13.69) nmols/L
- Net increase over control NO (mean ± sd) [11]: 35.33 (20.27) nmols/L
- Net increase over control NO/ONOO− (mean ± sd) [11]: −0.36 (0.18)
- Net increase over control ONOO− (mean ± sd) [11]: −94.89 (10.87) nmols/L
- Peak release NO (mean ± sd) [11]: 348.78 (92.48) nmols/L
- Peak release NO/ONOO− (mean ± sd) [11]: 1.19 (0.80)
- Peak release ONOO− (mean ± sd) [11]: 345.56 (123.07) nmols/L
- Net increase over control NO (mean ± sd) [12]: 53.00 (50.91) nmols/L
- Net increase over control NO/ONOO− (mean ± sd) [12]: −1.41 (1.74)
- Net increase over control ONOO− (mean ± sd) [12]: −64.83 (44.08) nmols/L
- Peak release NO (mean ± sd) [12]: 453.00 (178.19) nmols/L
- Peak release NO/ONOO− (mean ± sd) [12]: 1.23 (0.75)
- Peak release ONOO− (mean ± sd) [12]: 397.67 (96.64) nmols/L
- % Change Ratio, % Change NO/% Change ONOO− (mean ± sd) (HUVECs G894T variant G/G): −0.82 (0.40)
- Net increase over control NO (mean ± sd) (HUVECs G894T variant G/G): 55.05 (21.03) nmols/L
- Net increase over control NO/ONOO− (mean ± sd) (HUVECs G894T variant G/G): −0.85 (0.52)
- Net increase over control ONOO− (mean ± sd) (HUVECs G894T variant G/G): −74.19 (29.80) nmols/L
- Peak release NO (mean ± sd) (HUVECs G894T variant G/G): 398.92 (71.74) nmols/L
- Peak release NO/ONOO− (mean ± sd) (HUVECs G894T variant G/G): 1.50 (0.51)
